From US20080039434A1, “Treatment of Interstitial Cystitis with Vitamin D Compounds” (BioXell S. p.A., priority 2004, published 2008)

What was measured:
[1] = tested on: rats with CYP-induced cystitis; assay: Cystometry in rats with CYP induced chronic IC, Compound B; format: in vivo, rat; details: for # of NVBC / FP / MP / TP / amplitude of NVBC / Bl. Cap.: group value; for Bl. Cap.: unit from FIG. 5 legend
Text: Wistar rats ([…] weighing 125-175 g, age 8 weeks) were used. Under general inhalation anesthesia with 2% isoflurane, polyethylene tubing (PE-50, Clay Adams, Parsippany, N.J.) with the end flared by heat was inserted into the dome of the bladder and secured in place with a 6-0 nylon purse string suture. The distal end of the tubing was sealed, tunneled subcutaneously and externalized through a small incision at the back of the neck. The tubing was then coiled and buried subcutaneously. Following recovery (5 days) subject animals underwent three intraperitoneal injections of CYP (Sigma Chemical, St. Louis, Mo.; 75 mg/kg each, intraperitoneal) over the period of nine days. […] Two weeks following the initiation of the treatment animals underwent a conscious cystometrogram to assess the function of the urinary bladder. […] An ethanol stock solution of Compound B (1 mg/ml) was dissolved in Miglyol vehicle at the appropriate concentration. Control animals received the vehicle containing the same amount of ethanol. Drug (or vehicle) treatment was carried out by daily gavage after weighing the animal. Drug solution was prepared calculating a final volume of 100 ul/10 grams body weight. Following two weeks of treatment, animals were placed unrestrained in a cage and the distal end of the catheter was extracted from the subcutaneous pouch and connected via T-tube to a pressure transducer (Grass® Model PT300, West Warwick, R.I.) and microinjection pump (Harvard Apparatus 22, South Natick, Mass.). Saline solution (0.9%, room temperature) was infused into the bladder at a rate of 10 ml/h. Intravesical pressure was recorded continuously using a Neurodata Acquisition System (Grass®, Astro-Med, West Warwick, R.I.). At a minimum, three reproducible micturition cycles were recorded. […] The post-void residual (PVR) was measured by aspirating the residual urine remaining in the bladder after the last micturition or draining the bladder by gravity. Bladder capacity (BC) was calculated as the sum of voided volume and PVR. The bladder was harvested and its weight was recorded following euthanasia.

[2] = Calcemia assessment in CYP rats (colorimetric serum calcium assay); format: in vivo, rat; details: both dosage levels (30 and 75 ug/kg); limit of normal range 10.7 mg/dl in rats
Description: Serum calcemia was evaluated by a commercially available calorimetric assay (Calcium Dry-Fast, Sentinel CH. Italy). Briefly, 10 ul serum were added to 100 ul reaction solution prepared according to the manufacturer's procedure in a 96-wells plate. After 5 min incubation at RT samples were read at 570 nm with a spectrophotometer and the calcium levels were calculated in triplicate by using a standard reference as directed.

[3] = tested on: MCPT2; assay: Taq-Man analysis of bladder mRNA, allergic IC in mice: MCPT2; format: in vivo, mouse; details: ovalbumin challenged; 30 and 75 ug/kg oral, dose dependent; pooled samples
Description: (§1) Mice (BALB/c, females 8 weeks old, weight 18-20 g, Charles River, Calco ITA) were sensitized by injecting 10 ug/mouse of chicken ovalbumin from Sigma (OVA, grade V) in the presence of 4 mg of alum (SERVA, Germany) by intraperitoneal injection, once a week for 4 weeks. This induces a sustained level of IgE detectable in serum.
One or two weeks after the last immunization boost, sensitized mice were anesthetized (1.5% Isoflurane) and then trans-urethrally catheterized (24 gauge, ¾ in.; Angiocath, Becton-Dickson). Slight digital pressure was applied the lower abdomen to drain the urine. […]
Total RNA was extracted from one half of bladder by using RNeasy Mini kit (Qiagen), treated with DNase 1 (Qiagen) and reverse transcription performed with Reverse Transcription Reagent (Applied Biosystems) with Random Hexamers (according to the manufacturer's instructions). cDNA was synthesized from 1 ug of RNA. […] Reaction was run on an SDS 7000 (Applied Biosystems) instruments, with the following amplification program: 2′ at 50° C.; 10′ at 95° C.; 15″ at 95° C. and 1′ at 60° C. for 40 cycles; Cycle threshold (Ct) values were exported into Excel Worksheets for analysis and relative quantitations were performed using the ΔCt method. […]

[4] = tested on: FcεR1α; assay: Taq-Man analysis of bladder mRNA, allergic IC in mice: FcεR1α; format: in vivo, mouse; details: ovalbumin challenged
Description: as §1
(§2) One or two weeks after the last immunization boost, sensitized mice were anesthetized (1.5% Isoflurane) and then trans-urethrally catheterized (24 gauge, ¾ in.; Angiocath, Becton-Dickson). Slight digital pressure was applied the lower abdomen to drain the urine.
(§3) The urinary bladders were instilled with either 150 ul of either saline or OVA alone, (1 mg/150 ul) infused at a slow rate to avoid trauma and vesico-ureteral reflux and repeated twice within a 30-min interval with the syringe kept in place on the catheter for at least 30 min. Intravesical challenge was repeated 7-10 days after the first one with the same procedure.
(§4) An ethanol stock solution of Compound B (1 mg/ml) was dissolved in Miglyol vehicle at the appropriate concentration. Control animals received the vehicle containing the same amount of ethanol. Drug (or vehicle) treatment was carried out by daily gavage after weighing the animal. Drug solution was prepared calculating a final volume of 100 ul/10 grams body weight, and treatment was started on the day of the first intravesical ovalbumin challenge, maintained daily, but discontinued over the weekends, for 12 days total treatment. FIG. 7 illustrates the timeline of the experiment.
(§5) Total RNA was extracted from one half of bladder by using RNeasy Mini kit (Qiagen), treated with DNase 1 (Qiagen) and reverse transcription performed with Reverse Transcription Reagent (Applied Biosystems) with Random Hexamers (according to the manufacturer's instructions). cDNA was synthesized from 1 ug of RNA. Real-Time PCR was performed in 96-well optical reaction plates (Applied Biosystems). For each sample we amplified both the target gene and the housekeeping gene (HPRT) in different wells (singleplex) and in duplicate. The amplification Master Mix was prepared according to the following protocol (volumes refer to a single well with a final volume of 40 ul/well)): 2× TaqMan® R Universal PCR Master Mix (Applied Biosystems, 4304437): 20 ul; 20× Assay target gene: 2 ul; H2O: 8 ul; cDNA: 10 ul. Reaction was run on an SDS 7000 (Applied Biosystems) instruments, with the following amplification program: 2′ at 50° C.; 10′ at 95° C.; 15″ at 95° C. and 1′ at 60° C. for 40 cycles; Cycle threshold (Ct) values were exported into Excel Worksheets for analysis and relative quantitations were performed using the ΔCt method. All primers used carried the FAM reporter.
(§6) Experiments in Example 7 were performed according to the general procedures described previously in Example 6. Mice were challenged with saline (untreated) or ovalbumin (treatment with vehicle or one of Compounds C-I at a dosage indicated in Table 6 in ug/kg).

[5] = tested on: MMCP4; assay: Taq-Man analysis of bladder mRNA, allergic IC in mice: MMCP4; format: in vivo, mouse; details: ovalbumin challenged; 75 ug/kg oral; individual animals
Description: as §1, §2, §3, §4, §5, §6

[6] = 30 ug/kg oral daily for 14 days
[7] = 75 ug/kg oral daily for 14 days
[8] = vs vehicle, not statistically significant

C=C1/C(=C\C=C2/CCC[C@]3(C)C([C@@H](C)C/C=C/C(O)(CC)CC)=CC[C@@H]23)C[C@@H](O)C[C@@H]1F [Compound B, 1-alpha-fluoro-25-hydroxy-16,23E-diene-26,27-bishomo-20-epi-cholecalciferol]
# of NVBC [1, 6]: 11.7
FP [1, 6]: 23.3 cm H2O
MP [1, 6]: 79.3 cm H2O
TP [1, 6]: 29.3 cm H2O
amplitude of NVBC [1, 6]: 16.6
Bl. Cap. [1, 6]: 2.0 mL
# of NVBC [1, 7]: 8.3
FP [1, 7]: 26.1 cm H2O
MP [1, 7]: 90.5 cm H2O
TP [1, 7]: 36.3 cm H2O
amplitude of NVBC [1, 7]: 13.6
Bl. Cap. [1, 7]: 2.1 mL
frequency of non-voiding bladder contractions ([1]; both dosage levels (30 ug/kg, p<0.01; 75 ug/kg, p<0.005) vs vehicle): significantly reduced
bladder capacity ([1]; both dosage levels (30 ug/kg, p<0.01; 75 ug/kg, p<0.01) vs vehicle): increased
amplitude of non-voiding bladder contractions ([1]; higher dose level (75 ug/kg), not statistically significant): reduced
filling pressure [1, 8]: Marginal increase
threshold pressure [1, 8]: Marginal increase
average serum calcium levels [2]: only slightly but not significantly elevated
expression of inflammatory marker MCPT2 [3]: significantly reduces
expression of inflammatory marker FcεR1α ([4]; 75 ug/kg oral, individual animals): down-modulates
expression of inflammatory marker FcεR1α ([4]; 30 and 75 ug/kg oral, dose dependent, pooled samples): significantly reduces
expression of inflammatory marker MMCP4 [5]: down-modulates
